“And” between values parts separate entries of the source, which are not always exact repeats. Equal values may be shown once.
What was measured:
[1] = test system: human spermatozoa in semen samples; test: Post-cool and post-thaw sperm motility after cryopreservation in freezing buffer with HU (Working Example 4); format: cell-based; details: FB+HU, final HU 1 μM, listed as HU
Method: Post semen analysis was conducted of discarded and de-identified semen samples from Ovation Fertility Center that met the World Health Organization (WHO) criteria for normal semen samples. Those semen samples that met the WHO criteria for normal were divided into two halves. One half subjected to freezing with TEST-Yolk buffer (freezing buffer [FB]; Irvine Scientific, CA) containing 12% glycerol as cryoprotectant (control group). The remaining half of each sample was frozen with experimental freezing buffer composed of FB+HU (Sigma Aldridge, St. Louis; treatment group). Both control and experimental buffers were added on a 1:1 ratio to respective semen samples (v/v) in a dropwise manner. The final glycerol concentration in the semen+FB was 6% and the final HU concentration in semen+experimental freezing buffer was 1 μM to use a concentration of HU that is effective in inhibiting HIV replication. Pre-freeze sperm motility was determined for each sample prior to initiating the cooling arm of the freezing procedure. Samples in the control and treatment group were cooled for 24 hours to slow the HU induced vigorously motile cells in the treatment group. Subsequently, post cooling motility was determined prior to liquid nitrogen vapor phase freezing for 30 minutes before being stored immersed in LN for at least 24 hours before being thawed for analysis. […]

[2] = test system: human spermatozoa in semen samples; test: Sperm motility after cooling in freezing buffer with HU before cryopreservation (Working Example 3); format: cell-based
Method: Post semen analysis was conducted of discarded and de-identified semen samples from Ovation Fertility Center that met the World Health Organization (WHO) criteria for normal semen samples. Those semen samples that met the WHO criteria for normal were divided into two halves. One half was subjected to freezing with TEST-Yolk buffer (freezing buffer [FB]; Irvine Scientific, CA) containing 12% glycerol as cryoprotectant (control group). The remaining half of each sample was frozen with experimental freezing buffer composed of FB+HU (Sigma Aldridge, St. Louis; treatment group). Both control and experimental buffers were added on a 1:1 ratio to respective semen samples (v/v) in a dropwise manner. The final glycerol concentration in the semen+FB was 6%, and the final HU concentration in semen+experimental freezing buffer was 1 μM to use a concentration of HU that is effective in inhibiting HIV replication. Pre-freeze sperm motility was determined for each sample prior to initiating the cooling step of the freezing procedure. Samples in the control and treatment group were cooled for 24 hours to slow the HU-induced vigorously motile cells in the treatment group. Subsequently, post cooling motility was determined prior to liquid nitrogen vapor phase freezing for 30 minutes before being stored immersed in liquid nitrogen (LN) for at least 24 hours before being thawed for analysis. Samples were thawed at room temperature for 35 minutes prior to motility analysis.

human sperm [3] = test: Overall sperm motility after 24 hour culture with HU at HIV-suppressing concentrations (Working Example 2); format: cell-based; details: HTF-buffer, 37° C., control 70.3
Method: Normal human semen was collected in 15 mL conical centrifuge tubes. Highly motile (i.e., Grade a) sperm were isolated and collected from the semen. The isolated highly motile sperm were washed in HTF medium containing 0.5% BSA (HTF-HEPES; pH 7.4) by centrifugation and suspended in bicarbonate (25 mM)-buffered HTF containing 0.5% (5 mg/ml) BSA (36; pH 7.4). Subsequently, each sperm suspension was incubated at 37° C. in an atmosphere of 5.0% CO2 in humidified air until aliquoted into the different treatment groups: a control group and a hydroxyurea processed group.
(§1) The control group was cultured in HTF-buffer containing 0 μg HU/mL at 37° C. in an atmosphere of 5.0% CO2 in humidified air for 24 hours. After the 24 hour culture, the control sperm were evaluated for pattern and degree of motility.
The hydroxyurea processed groups were cultured in HTF-buffer in two groups containing different concentrations of HU: (1) 1.0 mM HU and (2) 2.0 mM HU. The groups were cultured at 37° C. in an atmosphere of 5.0% CO2 in humidified air for 24 hours. After the 24 hour culture, the hydroxyurea processed sperm were evaluated for pattern and degree of motility.
Thus, it had been previously believed that HU was an unsuitable agent to suppress HIV replication and/or activation in semen, or to reduce the risk of HIV transmission, via HU treatment of reproductive cells.

rats [4] = details: single dose; cited from earlier work
rats [5] = test: Oral LD50 in rats; details: rat oral LD50 divided by 1000
human sperm [6] = test: Sperm motility after 24 hour culture in HTF-buffer containing HU (Working Example 1); format: cell-based; details: 18 μg HU/mL, 37° C.
Method: Human sperm was processed with HU to show enhanced motility over human sperm not processed with HU. Normal human semen was collected in 15 mL conical centrifuge tubes. Highly motile (i.e., Grade a) sperm were isolated and collected from the semen. The isolated highly motile sperm were washed in an HTF medium (HTF-HEPES; pH 7.4) containing 0.5% Bovine Serum Albumin (“BSA”) by centrifugation and suspended in bicarbonate (25 mM)-buffered HTF containing 0.5% (5 mg/ml) BSA (36; pH 7.4). Subsequently, each sperm suspension was incubated at 37° C. in an atmosphere of 5.0% CO2 in humidified air until aliquoted into the different treatment groups: a control group and a hydroxyurea processed group.
as §1
The hydroxyurea processed group was cultured in HTF-buffer containing 18 μg HU/mL at 37° C. in an atmosphere of 5.0% CO2 in humidified air for 24 hours. After the 24 hour culture, the hydroxyurea processed sperm were evaluated for pattern and degree of motility. […] The percentage of motile spermatozoa was calculated by multiplying the ratio of motile to 100 spermatozoa counted by 100.
The progressive motility of the control group sperm was higher (P<0.001; based on paired t-test comparison) than the progressive motility of the hydroxyurea processed group sperm. […] On the other hand, most of the sperm cells in the control buffer remained in a progressive motility state (motility pattern observed among sperm cells that have not acquired the ability to fertilize mature eggs). These findings are clinically significant, as progressive sperm motility is a determinant of ability of spermatozoa to penetrate cervical mucus on towards migration to the fertilization site (fallopian tubes), while that for hyperactive sperm motility (capacitation) is the motion pattern characteristic of spermatozoa that have attained the ability to fertilize mature eggs.

Q: Which “Post-thaw Motility (HU; %)” value ([1]; liquid nitrogen at least 24 hours, thawed 35 minutes at room temperature, first figure of cell) does the source give for `NC(=O)NO` [hydroxyurea, Hydroxyurea] here?
A: Its value is 44% and 50% and 32%.

Q: What about the “Post-thaw Survival Relative to Post-cool Motility (HU; %)” value ([1]; post-thaw, second figure of cell) of the same molecule?
A: Its value is 71% and 76% and 49%.

Q: And the “level of overall spermatozoa with motility (FIGS. 2A-2H)” value ([2]; HU treated, video stills over about 9 seconds, control low level)?
A: Its value is “moderate to high level”.

Q: And the “motility maintained of the initial population of motile spermatozoa (pre-freeze)” value ([2]; freezing medium supplemented with HU, control 28-45%)?
A: Its value is 76-84%.

Q: What about the “longevity among post-thaw spermatozoa versus control group” value ([2]; frozen in FB+HU, post-thaw) of the same molecule?
A: The value was “higher”.

Q: And the “mean of the post-cool motility relative to post cool motility (survival of cooling process in percentage)” value ([2]; mean of seven HU treated samples, control 50.71)?
A: Its value is 71.91%.

Q: And the overall motility (human sperm [3]; 1.0 mM HU)?
A: The overall motility was 66.6.

Q: And the overall motility (human sperm [3]; 2.0 mM HU)?
A: Its overall motility is 68.3.

Q: What about the “oral LD50” value (rats [4]) of the same molecule?
A: Its value is 5780 mg/kg.

Q: And the “maximum effective dose (rough maximum safe dose for humans)” value (rats [5])?
A: The value was at most 5.78 mg/kg.

Q: What about the “overall percentage motility (progressively + hyperactively motile spermatozoa)” value (human sperm [6]; 5.0% CO2, 24 hours, control 75.4) of the same molecule?
A: Its value is 79.0%.

Q: And the hyperactive motility (human sperm [6]; 24 hours, control 23.0)?
A: Its hyperactive motility is 41.3%.

Q: And the progressive sperm motility (human sperm [6]; 24 hours, control 51.7±10.2)?
A: Its progressive sperm motility is 37.7%.

Source: patent US11926846B2, “Hydroxyurea to enhance sperm cells” (Meharry Medical College, priority 2017, dated 2024)
